The experiment concerns HEK293T cells. Briefly: Transfection-independent cytoplasmic entry, T7 RNAP RT-PCR assay. The experiment is classed as cell-based. To be noted: 40 pmol biotin:streptavidin dsDNA-SA-peptide assembly added without transfection reagent to HEK293T cells transiently transfected with T7_pEF/myc/cyto; lysed 18 hours later; FIG. 14 bottom panel. Here is the method:
To determine if cytoplasmic T7 would be active as a polymerase in mammalian cells, we developed a transient transfection assay in HEK293T cells (FIG. 5). Cells were seeded in 24-well dishes at 350,000 cells/well and then incubated overnight in Eagle's Minimum Essential Medium supplemented with 10% fetal bovine serum (FBS). A DNA template containing the T7 promoter upstream of the coding region of a VH antibody domain was prepared by PCR as follows. VH DNA from a naïve human VH library was PCR amplified (Strategene 600312) with a 5′ oligo coding for in vitro transcription and translation signal T7TMV (5′-TAATACG […]-3′; SEQ ID NO: 3)) and a 3′ oligo annealing to the C-terminal VH DNA Cmu and SA linker region, Y15 (5′-[…]-3′; SEQ ID NO: 4). The PCR product was gel purified. […] This specific RNA is then detected and amplified by RT-PCR. […]
For the cytoplasmic entry selections to be successful, biotin-streptavidin assemblies of oligonucleotide and encoded peptide or protein must be competent as T7 polymerase templates. To test whether a complex of biotinylated peptide or VH binder assembled with streptavidin can be transfected into cells, transcribed by T7 RNAP, and detected by RT-PCR, the above VH DNA was modified to carry both SP6 and T7 promoter sequences at the 5′ end (5′-[…]-3′; SEQ ID NO: 9) and Cmu-flag-SA-polyA sequence at the 3′ end (FIG. 12). […]

Results on two substances are retold here after patent US20120004137A1, “IDENTIFICATION OF NUCLEIC ACID DELIVERY VEHICLES USING DNA DISPLAY” (X-Body, Inc., priority 2009, published 2012).

Ends that are not written are not given here. * marks the point of attachment. Biotin = O=C1N[C@H]2[C@H](CS[C@H]2CCCCC(=O)*)N1

Biotin-KKWKMRRNQFWVKVQRG [ANT]: the “cellular uptake / RT-PCR activity as a result of cytoplasmic T7 polymerase activity” value is recorded as “cellular uptake of the peptide assemblies occurs”. To Biotin-YGRKKRRQRRR [TAT] belongs “cellular uptake of the peptide assemblies occurs”.
